{"source": "patent US9206177B2", "about": "“Substituted dimeric quinazoline-2,4-diones as FGF receptor agonists” (Sanofi, priority 2011, dated 2015)", "key": {"[1]": {"tested_on": "human venous endothelial cells (HUVECs)", "experiment": "In vitro angiogenesis model (pseudotubule length of HUVECs on matrigel/collagen)", "type": "cell-based", "set-up": "% activation with respect to FGF2 (in vitro): concentration or dose not given beside the values", "settings": "in vitro", "method": "In Vitro Angiogenesis Model\nThe products are tested for their ability to cause rearrangement of human venous endothelial cells (HUVECs) on matrigel (Becton dickinson 356230) diluted in collagen (rat tail collagen, type I: Becton dickinson 354236). After 24 hours, the cells are observed under a microscope with a ×4 objective and the length of the pseudotubules is measured by means of an image analyser (BIOCOM-logiciel Visiolab 2000)."}, "[2]": {"tested_on": "mice", "experiment": "Sponge angiogenesis model (haemoglobin content of implanted cellulose sponge)", "type": "in vivo", "settings": "at a concentration of 300 μM", "from_the_text": "Sponge Angiogenesis Model\nThe sponge angiogenesis model is an adaptation of the technique of Andrade et al. [Andrade S P, Machado R., Teixeiras, Belo A V, Tarso A M, Beraldo W T—Sponge-induced angiogenesis in mice and the pharmacological reactivity of the neovasculature quantitated by fluorimetric method, Microvascular Research, 1997, 54: 253-61.]\nThe mice used are BalbC females from Charles River Laboratory, 7 to 10 weeks old. The animals are anaesthetized by intraperitoneal injection of a xylazine/ketamine mixture (1 mg/kg each in 0.9% NaCl). The animal's back is shaved and disinfected with hexomedine. A subcutaneous 5 ml pocket of air is made on the animal's back with sterile air. An incision is then made (approximately 1 cm) on the top of the animal's back in order to implant the sponge in the pocket. The biocompatible cellulose sponge (Cellspon, Interchim, 10 mm in diameter) was sterilized beforehand (autoclave 20 min at 120° C.) and is impregnated with 50 μl of sterile solution containing the test product. Suturing is performed by inserting two 9-mm stainless steel autoclip staples (Subra). The wound is again disinfected with hexomedine. […]\nTo assay the haemoglobin, 50 μl of each sample are deposited in a 96-well plate, in duplicate. […] The OD values are read on a spectrophotometer at 405 nm, using the Biolise software (Tecan, France). […]"}}}
{"molecule": "Cc1c(-c2ccc(OCC(=O)NCCCCCCNC(=O)COc3ccc(-c4c(C)c(C(=O)c5ccc6[nH]c(=O)n(CC(=O)O)c(=O)c6c5)n5ccccc45)cc3)cc2)c2ccccn2c1C(=O)c1ccc2[nH]c(=O)n(CC(=O)O)c(=O)c2c1", "note": "[Compound 4]", "values": [{"measurement": "EC50", "setting": "[1]", "value": "< 1", "unit": "nM"}, {"measurement": "% activation with respect to FGF2 (in vitro)", "setting": "[1]; relative to FGF2", "value": 57, "unit": "%"}, {"measurement": "active on the in vitro angiogenesis model (sentence stands under the sponge angiogenesis model)", "setting": "[2]", "value": "active"}]}
